≈ marks a conversion by molar mass, not a printed value.
Assays:
Streptococcus pneumoniae [1] = test: Antibacterial activity against Streptococcus pneumoniae ATCC 49619 isolated from respiratory tract infected patients assessed as susceptible isolates after 20 to 24 hrs by broth microdilution method; type: functional
Streptococcus pneumoniae [2] = test: Antibacterial activity against Streptococcus pneumoniae ATCC 49619 isolated from respiratory tract infected patients assessed as resistant isolates after 20 to 24 hrs by broth microdilution method; type: functional
Haemophilus influenzae [3] = test: Antibacterial activity against beta lactamase-positive Haemophilus influenzae […] isolated from respiratory tract infected patients assessed as resistant isolates after 20 to 24 hrs by broth microdilution method; type: functional, ATCC 49247
Streptococcus pneumoniae [4] = test: Antibacterial activity against penicillin-resistant Streptococcus pneumoniae ATCC 49619 isolated from respiratory tract infected patients assessed as susceptible isolates after 20 to 24 hrs by broth microdilution method; type: functional
Streptococcus pneumoniae [5] = test: Antibacterial activity against penicillin-susceptible Streptococcus pneumoniae ATCC 49619 isolated from respiratory tract infected patients assessed as susceptible isolates after 20 to 24 hrs by broth microdilution method; type: functional
Streptococcus pneumoniae [6] = test: Antibacterial activity against penicillin-susceptible Streptococcus pneumoniae ATCC 49619 isolated from respiratory tract infected patients assessed as resistant isolates after 20 to 24 hrs by broth microdilution method; type: functional
Haemophilus influenzae [7] = test: Antibacterial activity against Haemophilus influenzae […] isolated from respiratory tract infected patients after 20 to 24 hrs by broth microdilution method; type: functional; conditions: ATCC 49247
Streptococcus pneumoniae [8] = test: Antibacterial activity against penicillin-susceptible Streptococcus pneumoniae ATCC 49619 isolated from respiratory tract infected patients after 20 to 24 hrs by broth microdilution method; type: functional
Streptococcus pneumoniae [9] = test: Antibacterial activity against penicillin-resistant Streptococcus pneumoniae ATCC 49619 isolated from respiratory tract infected patients assessed as resistant isolates after 20 to 24 hrs by broth microdilution method; type: functional
Moraxella catarrhalis = test: Antibacterial activity against Moraxella catarrhalis isolated from respiratory tract infected patients after 20 to 24 hrs by broth microdilution method; type: functional
Haemophilus influenzae [10] = test: Antibacterial activity against beta lactamase-negative Haemophilus influenzae […] isolated from respiratory tract infected patients after 20 to 24 hrs by broth microdilution method; type: functional; conditions: ATCC 49247
Haemophilus influenzae [11] = test: Antibacterial activity against beta lactamase-positive Haemophilus influenzae […] isolated from respiratory tract infected patients after 20 to 24 hrs by broth microdilution method; type: functional; conditions: ATCC 49247
Streptococcus pneumoniae [12] = test: Antibacterial activity against Streptococcus pneumoniae ATCC 49619 isolated from respiratory tract infected patients after 20 to 24 hrs by broth microdilution method; type: functional
Haemophilus influenzae [13] = test: Antibacterial activity against beta lactamase-positive Haemophilus influenzae […] isolated from respiratory tract infected patients assessed as susceptible isolates after 20 to 24 hrs by broth microdilution method; type: functional, ATCC 49247
Haemophilus influenzae [14] = test: Antibacterial activity against beta lactamase-negative Haemophilus influenzae […] isolated from respiratory tract infected patients assessed as resistant isolates after 20 to 24 hrs by broth microdilution method; type: functional, ATCC 49247
Streptococcus pneumoniae [15] = test: Antibacterial activity against penicillin-intermediate Streptococcus pneumoniae ATCC 49619 isolated from respiratory tract infected patients assessed as susceptible isolates after 20 to 24 hrs by broth microdilution method; type: functional
Streptococcus pneumoniae [16] = test: Antibacterial activity against penicillin-intermediate Streptococcus pneumoniae ATCC 49619 isolated from respiratory tract infected patients after 20 to 24 hrs by broth microdilution method; type: functional
Haemophilus influenzae [17] = test: Antibacterial activity against Haemophilus influenzae […] isolated from respiratory tract infected patients assessed as susceptible isolates after 20 to 24 hrs by broth microdilution method; type: functional, ATCC 49247
Haemophilus influenzae [18] = test: Antibacterial activity against beta lactamase-negative Haemophilus influenzae […] isolated from respiratory tract infected patients assessed as susceptible isolates after 20 to 24 hrs by broth microdilution method; type: functional
Streptococcus pneumoniae [19] = test: Antibacterial activity against penicillin-resistant Streptococcus pneumoniae ATCC 49619 isolated from respiratory tract infected patients after 20 to 24 hrs by broth microdilution method; type: functional
Haemophilus influenzae [20] = test: Antibacterial activity against Haemophilus influenzae […] isolated from respiratory tract infected patients assessed as resistant isolates after 20 to 24 hrs by broth microdilution method; type: functional, ATCC 49247
Streptococcus pneumoniae [21] = test: Antibacterial activity against penicillin-intermediate Streptococcus pneumoniae ATCC 49619 isolated from respiratory tract infected patients assessed as resistant isolates after 20 to 24 hrs by broth microdilution method; type: functional

With `CC[C@H]1OC(=O)[C@H](C)C(=O)[C@H](C)[C@@H](O[C@@H]2O[C@H](C)C[C@H](N(C)C)[C@H]2O)[C@](C)(OC)C[C@@H](C)C(=O)[C@H](C)[C@H]2N(CCCCn3cnc(-c4cccnc4)c3)C(=O)O[C@]12C` [TELITHROMYCIN] the Activity (Streptococcus pneumoniae [1]) was 99.4%, the Activity (Streptococcus pneumoniae [2]) was 0.1% and the Activity (Haemophilus influenzae [3]) was 0.8%. For the same compound, the Activity (Streptococcus pneumoniae [4]) was 97.2%, the Activity (Streptococcus pneumoniae [5]) was 99.8% and the Activity (Streptococcus pneumoniae [6]) was 0.1%. For the same compound, the MIC50 (Haemophilus influenzae [7]) was 2 µg/mL (≈ 2.46 µM), the MIC90 (Haemophilus influenzae [7]) was 4 µg/mL (≈ 4.93 µM) and the MIC50 (Streptococcus pneumoniae [8]) was at most 0.12 µg/mL. It also gave an MIC90 (Streptococcus pneumoniae [8]) of at most 0.12 µg/mL, an Activity (Streptococcus pneumoniae [9]) of 0% and an MIC50 (Moraxella catarrhalis) of at most 0.12 µg/mL. For the same compound, the MIC90 (Moraxella catarrhalis) was at most 0.12 µg/mL, the MIC50 (Haemophilus influenzae [10]) was 2 µg/mL (≈ 2.46 µM) and the MIC90 (Haemophilus influenzae [10]) was 4 µg/mL (≈ 4.93 µM). For the same compound, the MIC50 (Haemophilus influenzae [11]) was 2 µg/mL (≈ 2.46 µM), the MIC90 (Haemophilus influenzae [11]) was 4 µg/mL (≈ 4.93 µM) and the MIC50 (Streptococcus pneumoniae [12]) was at most 0.12 µg/mL. The MIC90 (Streptococcus pneumoniae [12]) was 0.5 µg/mL (≈ 0.616 µM), the Activity (Haemophilus influenzae [13]) was 97% and the Activity (Haemophilus influenzae [14]) was 0.7%. The Activity (Streptococcus pneumoniae [15]) was 100%, the MIC50 (Streptococcus pneumoniae [16]) was at most 0.12 µg/mL and the MIC90 (Streptococcus pneumoniae [16]) was 0.5 µg/mL (≈ 0.616 µM). For the same compound, the Activity (Haemophilus influenzae [17]) was 96.4%, the Activity (Haemophilus influenzae [18]) was 96.1% and the MIC50 (Streptococcus pneumoniae [19]) was 0.5 µg/mL (≈ 0.616 µM). For the same compound, the MIC90 (Streptococcus pneumoniae [19]) was 1 µg/mL (≈ 1.23 µM), the Activity (Haemophilus influenzae [20]) was 0.7% and the Activity (Streptococcus pneumoniae [21]) was 0%.

From ChEMBL document CHEMBL1151433, “National and regional assessment of antimicrobial resistance among community-acquired respiratory tract pathogens identified in a 2005-2006 U.S. Faropenem surveillance study” (2007)
